Publication PMC12165925 (Natural Products and Bioprospecting, 2025)

Tests used:
Experiment in all cases: microbe, parasite or virus in culture
Type in all cases: cell-based
Conditions in all cases: hACE2-HEK293T cells
[1] = test system: SARS-CoV-2-S pseudovirus Delta variant
[2] = test system: SARS-CoV-2-S pseudovirus Gamma variant
[3] = test system: SARS-CoV-2-S pseudovirus Omicron variant

Structure (SMILES) | IC50 [1] [µM] | IC50 [2] [µM] | IC50 [3] [µM]
Oc1cc(O)c2cc(O)c(-c3cc(O)c(O)c(O)c3)[o+]c2c1 [Delphinidin] | > 200 | > 200 | 10.8 ± 0.68
C[C@@H]1O[C@@H](O[C@H]2[C@H](OC(=O)[C@]34CCC(C)(C)C[C@H]3C3=CC[C@@H]5[C@@]6(C)C[C@H](O)[C@H](O[C@@H]7O[C@H](CO)[C@@H](O)[C@H](O)[C@H]7O)C(CO)(CO)[C@@H]6CC[C@@]5(C)[C@]3(C)C[C@H]4O)OC[C@H](O)[C@@H]2O)[C@H](O)[C@H](O)[C@H]1O[C@@H]1OC[C@@H](O)[C@H](O)[C@H]1O [DPD, Deapio platycodin D] | 0.83 ± 0.07 | 1 ± 0.04 | 1.03 ± 0.02
